Results taken from US20200087258A1, “INHIBITOR OF CITRATE TRANSPORTER AND THEIR USE IN THERAPY” (Eternygen GmbH, priority 2017, published 2020).

Experiments:
GLT-1 = biological target: T1, GLT-1 (Homo sapiens, UniProt P43004); experiment: 3H-glutamate uptake counter assay in HEK293 cells overexpressing human GLT-1; format: cell-based
T1 construct: host or cells: HEK293 (virus made in GP293 packaging cells)
Procedure: The compound was obtained by screening of a library containing more than 50,000 lead-like compounds and fragments. The library was tested using a functional citrate uptake assay with HEK293 cells overexpressing recombinant human INDY. The following hit confirmation was conducted in the same assay system. To confirm the activity of selected compounds on the target INDY another cell assay was conducted. In this assay system citrate uptake was measured using HepG2 cells which endogenously express INDY. Furthermore selectivity of selected compounds was tested for two other transporters in different assay systems. The first transporter was the glutamate transporter GLT-1 tested in a glutamate uptake assays using HEK293 cells overexpressing recombinant human GLT-1. The second transporter was the glucose transporter GLUT1 tested in a glucose uptake assay using Huh-7 cells which endogenously express GLUT1. Compounds were considered to be selective with an at least 5-fold higher activity for INDY than for the other two transporters.
Cells were maintained in cell medium using cell culture grade flasks (CellSTACK Corning, 500 cm2 dishes or T175 depending on cell number). The selection antibiotic and G418 (800 μg/ml) was added during cultivation but not for seeding into assay plates. For splitting, cells were washed with PBS (w/o Ca2+, Mg2+, phenol red) and detached with Trypsin/EDTA. Throughout cultivation cells were kept sub-confluent. Detached cells (50,000 cells/well) were seeded in 96-well plates (white, clear bottom from Corning #655098) and incubated over night before usage in the assay. The following media were used. For HEK293 cells expressing INDY MEM (PAA)+10% FCS+1×P/S+2 mM L-Gln; for HEK293 cells expressing GLT-1 DMEM (Gibco)+10% FCS+400 µg/ml G418; for Huh7 cells DMEM (Gibco)+10% FCS+2 mM L-Gin (+1×P/S); for HepG2 cells MEM (PAA, Cat # E15-024)+10% FCS+2 mM L-Gin+1×NEAA+1 mM Na-Pyruvat
The following assay buffers for the particular uptake reaction were used. Citrate uptake buffer: 120 mM NaCl, 5.4 mM KCl, 0.8 mM MgSO4, 5 mM glucose, 1.8 mM CaCl2, 25 mM Hepes, 25 mM MES, pH 6.5. Glutamate uptake buffer: HBSS, 1 mM CaCl2, 1 mM MgCl2, 20 mM Hepes pH 7.4. Glucose uptake buffer: 25 mM Hepes+25 mM MES pH 7.4, 120 mM NaCl, 5.4 mM KCl, 1.8 mM CaCl2, 0.8 mM MgSO4.
As a counter assay, Glutamate uptake by the GLT-1 transporter was used. The principle of the assay is to measure the uptake of ^3H labelled glutamate into HEK cells, which overexpress human GLT-1.
The generation of a GLT-1 cell line was performed as follows: human GLT11 isoform sv1 cDNA (Origene # RC223924) was cloned into vector pFB-Neo-CMV-hGLT1 using QIAfilter Plasmid Midi Kit (Qiagen). Virus was generated in GP293 packaging cells (transfection of plasmid with Lipofectamine 2000+OptiMEM). For transfection into HEK cells GP293, supernatant containing virus was passed through a 0.45 micron sterile filter and DEAE-dextran was added at […] final concentration. The solution was used to transfect HEK293 cells at 37° C., 8.5% CO2. After 24 h selection marker G418 at 400 μg/ml was added and cultivation medium performed in DMEM 10% FBS.
The assay was performed in a 96-well format using repeated washing steps, cell lysis and addition of scintillation fluid. Assay buffer was HBSS, 1 mM CaCl2, 1 mM MgCl2, […] pH 7.4. Cells were seeded into white clear-bottom 96-well plates (50,000/well) in the presence of Poly-D-Lysine and incubated at 37° C. for 16-24 hours. Subsequently the plates were washed once with assay buffer using automated washing/LS 405 Selectors, BioTek ending with a buffer volume of 40 μl. Then 5 μl of compound solution in assay buffer was added and incubated for 20 min at 37° C. in cell incubator, HERA cell Heraeus. Afterwards 10 μl of substrate 3H-Glu (3 nM) were added and incubated for another 20 min at 37° C. in cell incubator, HERAcell. Then the plates were washed once with 200 μl cold assay buffer and 150 μl scintillation fluid was added. […]

INDY = INDY (Homo sapiens, UniProt Q86YT5); experiment: Fatty acid synthesis (FAS) assay from 14C-citrate in HepG2 cells; format: cell-based; settings: 14C-citrate into fatty acids
Procedure: To test the functional activity of selected compounds and to bridge between the in vitro assay for citrate uptake to the physiological relevant lipid accumulation in liver cells a further functional cell assay was performed. This assay measured the effect of selected compounds on the citrate mediated fatty acid synthesis in hepatocytes.
Fatty acid synthesis (FAS) assay in HepG2: The principle of the assay is to measure the generation of ^14C-labelled fatty acids after uptake of ^14C labelled citrate into HepG2 cells. HepG2 cells were seeded into white clear-bottom 96-well plates (50,000/well) coated with collagen and incubated at 37° C. for 16-24 hours. After that plates were washed once with 100 μl PBS (+CaCl2+MgCl2) and 40 μl assay medium ([…] containing 11 mM glucose, 10 mM HEPES and 1 nM Insulin) per well was added. Test substances in assay medium were added ([…], 0.5% DMSO) and incubated for 20 min. After that 10 μl assay medium containing ^14C-citrate (final concentration 50 nM) and PrestoBlue reagent (1× final concentration; Life Technologies) were added and incubated for 60 min (37° C., 5% CO2). Cell viability was measured (Safire microplate reader, ex: 560/em: 590) and plates were incubated for another 30 min. Medium was removed by inverting the plate and cells were washed once with 100 μl ice-cold PBS. Cells were lysed with 50 μl lysis buffer (100 mM NaOH, 0.1% Triton X-100) and plate was sealed with Tape Pads and vortexed. For the saponification reaction plates were incubated for 16-24 hours at 80° C. Seals were removed and 200 μl […] was added for neutralisation of the pH. 150 μl from each well was transferred into the corresponding wells of a 96-well CytoStarT plate (Perkin Elmer) and sealed with TopSeal A (Perkin Elmer). Plates were incubated for 4 h at 70° C. and for 1 h at room temperature in the dark. Signal of ^14C radioactivity was measured (TopCount NXT scintillation counter, 1 min/well). As a positive control 5 mM citrate or 40 μM C75 (Sigma, C5490) was applied.

INDY, sequence (Q86YT5 whole entry): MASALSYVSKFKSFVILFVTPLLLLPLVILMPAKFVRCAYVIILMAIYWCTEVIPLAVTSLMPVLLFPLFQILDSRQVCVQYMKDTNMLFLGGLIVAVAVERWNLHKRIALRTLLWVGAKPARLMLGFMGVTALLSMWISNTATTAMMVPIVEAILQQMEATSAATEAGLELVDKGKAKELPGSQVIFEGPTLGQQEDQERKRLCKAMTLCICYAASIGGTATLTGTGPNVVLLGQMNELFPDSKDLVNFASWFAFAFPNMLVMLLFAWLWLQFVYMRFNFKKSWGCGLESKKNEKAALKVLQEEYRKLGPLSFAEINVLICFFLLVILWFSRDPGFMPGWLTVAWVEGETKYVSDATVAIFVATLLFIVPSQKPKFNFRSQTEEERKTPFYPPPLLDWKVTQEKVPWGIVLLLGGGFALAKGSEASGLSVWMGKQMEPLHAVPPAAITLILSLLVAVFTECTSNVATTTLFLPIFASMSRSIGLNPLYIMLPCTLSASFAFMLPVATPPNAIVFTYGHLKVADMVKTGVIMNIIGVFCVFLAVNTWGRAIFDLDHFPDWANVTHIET
T1 sequence (P43004 whole entry): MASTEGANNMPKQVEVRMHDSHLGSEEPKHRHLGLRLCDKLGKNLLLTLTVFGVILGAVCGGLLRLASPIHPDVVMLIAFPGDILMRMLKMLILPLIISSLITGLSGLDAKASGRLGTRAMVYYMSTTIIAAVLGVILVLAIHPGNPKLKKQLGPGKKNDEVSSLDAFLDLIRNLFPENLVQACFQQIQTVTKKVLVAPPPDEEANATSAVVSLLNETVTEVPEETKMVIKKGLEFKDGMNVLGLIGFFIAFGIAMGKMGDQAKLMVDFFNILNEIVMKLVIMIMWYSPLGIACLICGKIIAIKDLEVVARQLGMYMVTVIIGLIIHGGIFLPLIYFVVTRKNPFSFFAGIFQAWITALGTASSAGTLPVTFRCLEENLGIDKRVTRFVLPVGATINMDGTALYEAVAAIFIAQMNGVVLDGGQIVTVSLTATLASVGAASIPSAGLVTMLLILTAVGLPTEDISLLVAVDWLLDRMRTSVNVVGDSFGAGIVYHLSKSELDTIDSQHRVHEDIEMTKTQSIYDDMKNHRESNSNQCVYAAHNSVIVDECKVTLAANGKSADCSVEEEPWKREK

IC50 (GLT-1) [nM] | IC50 (INDY) [nM] | SMILES
> 20000 | 2500 | O=C(NCc1ccccn1)C1CCN(S(=O)(=O)c2ccc(C(F)(F)F)cc2)CC1 [Example 57, N-[(pyridin-2-yl)methyl]-1-[4-(trifluoromethyl)benzenesulfonyl]piperidine-4-carboxamide]
> 20000 | 400 | O=C(NCc1ccccn1)C1CCN(S(=O)(=O)c2ccc(S(F)(F)(F)(F)F)cc2)CC1 [Example 86, 1-[4-(pentafluoro-lambda6-sulfanyl)benzenesulfonyl]-N-[(pyridin-2-yl)methyl]pipendine-4-carboxamide]
> 20000 | 600 | O=C(NCc1ccccc1CO)C1CCN(S(=O)(=O)c2cc(Cl)cc(Cl)c2)CC1 [Example 87, 1-(3,5-dichlorobenzenesulfonyl)-N-{[2-(hydroxymethyl)phenyl]methyl}piperidine-4-carboxamide]
> 20000 | 200 | O=C(NCc1ccccn1)C1CCN(S(=O)(=O)c2cc(Cl)cc(C3CC3)c2)CC1 [Example 101, 1-(3-chloro-5-cyclopropylbenzenesulfonyl)-N-[(pyridin-2-yl)methyl]piperidine-4-carboxamide]

The next lines start with the compound.

SMILES | IC50 (GLT-1) [nM] | IC50 (INDY) [nM]
O=C(NCc1ccccc1F)C1CCN(S(=O)(=O)/C=C/c2ccccc2)CC1 [Example 5] | > 50000 | 1300
CC(C)(C)c1ccc(S(=O)(=O)N2CCC(C(=O)NCc3ccccc3F)CC2)cc1 [Example 12, 1-(4-tert-butylbenzenesulfonyl)-N-[(2-fluorophenyl)methyl]piperidine-4-carboxamide] | > 20000 | 600
O=C(NCc1ccccc1F)C1CCN(S(=O)(=O)c2ccc(C(F)(F)F)cc2)CC1 [Example 25, N-[(2-fluorophenyl)methyl]-1-[4-(trifluoromethyl)benzenesulfonyl]piperidine-4-carboxamide] | > 20000 | 400
O=C(NCc1ccccc1F)C1CCN(S(=O)(=O)c2cc(Cl)cc(Cl)c2)CC1 [Example 44, 1-(3,5-dichlorobenzenesulfonyl)-N-[(2-fluorophenyl)methyl]piperidine-4-carboxamide] | > 20000 | 30
COc1ccccc1CNC(=O)C1CN(S(=O)(=O)c2ccc(C(C)(C)C)cc2)C1 [Example 50, 1-(4-tert-butylbenzenesulfonyl)-N-[(2-methoxyphenyl)methyl]azetidine-3-carboxamide] | > 20000 | 6200
O=C(NCc1ccccn1)C1CCN(S(=O)(=O)c2cc(Cl)cc(Cl)c2)CC1 [Example 55, 1-(3,5-dichlorobenzenesulfonyl)-N-[(pyridin-2-yl)methyl]piperidine-4-carboxamide] | > 20000 | 600
